Data set [1] in a line: Water solubility assay (pH 7.8 buffer). The class given is physicochemical. On the procedure:
***Water Solubility Assay (Measured in pH 7.8 Buffer)
The onset of precipitation, if it occurred, was detected by an increase in absorbance at 650 nm.
Assay Buffer: 35 mM HEPES pH 7.8
Stock solutions of Control and Test Compounds: 10 mM in 100% DMSO
10 mM stock solutions of control and test compounds were prepared in 100% DMSO. A series of dilutions were prepared from the stock in DMSO so that the final concentrations in the assay were 0, 3.33, 10, 25, 50, 75 and 100 μM and DMSO was limited to 1%.
Assay buffer (247.5 μl) was placed into flat bottomed transparent 96-well plate. For blank samples DMSO (2.5 μl) was added. For test and control samples 2.5 μl of the appropriate DMSO dilution stocks were added to the appropriate well. All test and control compounds were performed in triplicate.
The plates were sealed with adhesive plate seal and shaken at 250 rpm at 25° C. for 18 h on a plate shaker.
After incubation the plate seals were taken off and any bubbles observed in wells removed. The plates were read on a SpectraMaxM5 with a 5 s pre-shake at 650 nm.
Data files were transferred to the appropriate worksheet and the solubility range of the compounds was calculated from the data.
The values shown in the tables indicate the concentration in μM (micromolar) at which the compound remains in solution.

The next data set has as its target T1, cyclophilin A (Cyp A) (Homo sapiens, UniProt P62937).
T1 construct: purchased Sigma C3805
In words: Protease-free PPIase assay, cyclophilin A. The class given is biochemical. As to the method:
(§1) The protease-free PPIase assay measures the rate of cis to trans conversion of a peptide substrate catalyzed by the enzymes cyclophilin A and cyclophilin D. Addition of a cyclophilin inhibitor (e.g., a test compound) slows the catalyzed rate and a Ki value is obtained. […] 35 mM HEPES pH 7.8, filtered through a 0.2 μm filter. 50 μM DTT was added prior to use each day and then the buffer was stored on ice. Human recombinant cyclophilin A (Cyp A) (Sigma C3805) enzyme was diluted to 1 μM with enzyme dilution buffer (20 mM HEPES pH 7.8, 40% glycerol, 50 μM DTT and 1 μM BSA) and stored at -20° C. Succinimide-[…]) (from Bachem AG, L-1400), 20 mg/ml prepared in 0.5 M LiCl in trifluoroethanol. All readings were taken with an Agilent 8453 Spectrophotometer which consists of a cuvette holder, stirrer and chiller to maintain a stirred cuvette temperature of 10.0±0.1° C. The temperature is monitored by the use of temperature probe. […] The inhibitor was diluted in 100% DMSO, and then added to the assay to a maximum final concentration of 0.5% DMSO in the assay. A blank spectrum was obtained, then 3 μL of enzyme was added (2 nM final concentration) and then 3 μL substrate (60 μM final concentration) added. The absorbance was measured at 330 nm for 300 s or 500 s for blank runs (NOTE: the substrate must be added in one quick injection and the measurements started immediately to minimize mixing errors). A first order rate equation was fitted to the absorbance data, for each concentration of inhibitor, to obtain the rate constant (the first 10 to 15 seconds were excluded as mixing causes errors in this portion of curve). The catalytic rate was calculated from the enzymatic rate constant minus the background rate constant. An exponential curve was generated using the catalytic rate constants versus the inhibitor concentration to obtain the Ki value for the inhibitor. The Ki value is indicative of the binding affinity between the test compound and cyclophilin A or cyclophilin D.

A further data set has as its target cyclophilin D (Cyp D) (Homo sapiens, UniProt P30405). In words: Protease-free PPIase assay, cyclophilin D. The class given is biochemical. As to the method:
as §1, with “ice.” for “ice. Human recombinant cyclophilin A (Cyp A) (Sigma C3805) enzyme was diluted to 1 μM with enzyme dilution buffer (20 mM HEPES pH 7.8, 40% glycerol, 50 μM DTT and 1 μM BSA) and stored at -20° C.”

Where [2] appears, read: 35 mM HEPES buffer, 35 mM HEPES pH 7.8, 1% DMSO, 25° C., 18 h, concentration at which compound remains in solution, read-out: Solubility.
The mark [3] stands for this setting: protease-free PPIase assay, class symbols, read-out: CypA Ki.
Setting [4] is: protease-free PPIase assay, class symbols, read-out: CypD Ki.

The source of these data is patent US9382295B2, “Cyclic depsipeptide compounds and their uses” (Cypralis Limited, priority 2012, dated 2016).

What is called solubility is the dissolved amount per volume that the medium holds. The Ki is a measure of affinity in units of concentration, obtained from inhibition or displacement.

Values after ≈ are worked out from the molar mass of the structure shown. Read-outs that look alike come from different tables or passages of the source. Numbered stars: 1 amine (or outer) side, 2 acyl side, 3 side chain; on linkers, the order of the positions; unused ones are H or OH. Square brackets hold non-standard residues; d marks the D form. Peptide text beside a SMILES is read from it. X28 = C[C@H](CCN1CCC(c2ccccc2)CC1)[C@@H](O)[C@H](C(=O)[*:2])N(C)[*:1]; X33 = C[C@H](CCN1CCC(F)(CO)CC1)[C@@H](O)[C@H](C(=O)[*:2])N(C)[*:1]; X17 = C[C@H](CCN(C)CCc1ccccn1)[C@@H](O)[C@H](C(=O)[*:2])N(C)[*:1]; X9 = C[C@H](CC(=O)NCc1ccccc1)[C@@H](O)[C@H](C(=O)[*:2])N(C)[*:1]; X1 = Cc1cccc(CCC[C@@H](C)[C@@H](O)[C@H](C(=O)[*:2])N(C)[*:1])n1; X8 = C[C@H](CCN1CCC[C@H]1CO)[C@@H](O)[C@H](C(=O)[*:2])N(C)[*:1]; X14 = C[C@H](CCCc1ncccn1)[C@@H](O)[C@H](C(=O)[*:2])N(C)[*:1]; d(aThr) = C[C@@H](O)[C@@H](N)C(=O)O; NMeL = CN[C@@H](CC(C)C)C(=O)O; dNMeL = CN[C@H](CC(C)C)C(=O)O; dNMeV = CN[C@@H](C(=O)O)C(C)C; Hiv = CC(C)[C@H](O)C(=O)O; dAbu = CC[C@@H](N)C(=O)O; Sar = CNCC(=O)O A value given as a limit tells only on which side of the number the result lay.

T1 sequence (P62937 whole entry): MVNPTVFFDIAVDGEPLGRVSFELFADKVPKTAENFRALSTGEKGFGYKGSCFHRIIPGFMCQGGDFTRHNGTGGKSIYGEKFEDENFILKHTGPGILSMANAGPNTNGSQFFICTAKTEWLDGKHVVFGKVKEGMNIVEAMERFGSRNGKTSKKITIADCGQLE
Chain of cyclophilin D (Cyp D) (P30405 30-207): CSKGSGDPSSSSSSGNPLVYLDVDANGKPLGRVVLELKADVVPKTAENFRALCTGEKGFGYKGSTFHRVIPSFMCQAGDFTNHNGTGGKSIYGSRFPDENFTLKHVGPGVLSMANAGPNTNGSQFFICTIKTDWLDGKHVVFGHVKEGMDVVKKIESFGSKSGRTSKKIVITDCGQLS

In data set [1] (pH 7.8), `CC[C@H]1NC(=O)[C@@H]([C@H](O)[C@H](C)CCCc2cccc(C)n2)N(C)C(=O)[C@@H](C(C)C)N(C)C(=O)[C@@H](CC(C)C)NC(=O)[C@@H](CC(C)C)N(C)C(=O)[C@H](C(C)C)OC(=O)[C@@H](C)NC(=O)[C@@H](CC(C)C)N(C)C(=O)[C@@H](CC(C)C)NC(=O)[C@H](CC(C)C)N(C)C(=O)CN(C)C1=O` [Example 21, cyclo-[(3R,4R,5S)-4-(hydroxy)-3-methyl-5-(methylamino)-1-(6-methyl-pyridin-2-yl)-heptanoic acid-Abu-Sar-MeLeu-Leu-MeLeu-Ala-D-Hiv-MeLeu-Leu-MeVal]] (cyclo([Hiv][dNMeL][dL][dNMeV][X1][dAbu][Sar][NMeL][dL][dNMeL][dA])) returned a solubility at 18 h of 10 to 25 µM (≈ 13.1 to 32.8 µg/mL). Besides, the inhibition constant Ki at cyclophilin A (Cyp A) and on cyclophilin D (Cyp D) was 0.001 to 0.025 µM each time.

Take `CC(C)C[C@@H]1C(=O)N[C@H](CC(C)C)C(=O)N(C)[C@H](C(C)C)C(=O)N(C)[C@H]([C@H](O)[C@H](C)CCN2CCC[C@H]2CO)C(=O)N[C@H]([C@@H](C)O)C(=O)N(C)CC(=O)N(C)[C@@H](CC(C)C)C(=O)N[C@H](CC(C)C)C(=O)N(C)[C@H](CC(C)C)C(=O)N[C@H](C)C(=O)O[C@@H](C(C)C)C(=O)N1C` [Example 26, cyclo-[(3R,4R,5S)-4-(hydroxy)-3-methyl-5-(methylamino)-1-N—((S)-1-Pyrrolidin-2-yl-methanol)-hexanoic acid-Thr-Sar-MeLeu-Leu-MeLeu-Ala-D-Hiv-MeLeu-Leu-MeVal]] (cyclo([Hiv][dNMeL][dL][dNMeV][X8][d(aThr)][Sar][NMeL][dL][dNMeL][dA])): the solubility at 18 h in data set [1] (pH 7.8) was above 100 µM. Further, the Ki on cyclophilin A (Cyp A) lay in the range of 0.1 to 0.3 µM; on cyclophilin D (Cyp D), 0.025 to 0.1 µM.

With `CC(C)C[C@@H]1C(=O)N[C@H](CC(C)C)C(=O)N(C)[C@H](C(C)C)C(=O)N(C)[C@H]([C@H](O)[C@H](C)CCN(C)CCc2ccccn2)C(=O)N[C@H]([C@@H](C)O)C(=O)N(C)CC(=O)N(C)[C@@H](CC(C)C)C(=O)N[C@H](CC(C)C)C(=O)N(C)[C@H](CC(C)C)C(=O)N[C@H](C)C(=O)O[C@@H](C(C)C)C(=O)N1C` [Example 4, cyclo-{(3R,4R,5S)-4-(hydroxy)-3-methyl-5-(methylamino)-1-N-[methyl-2-(pyridin-2-yl)-ethyl-amino]-hexanoic acid-Thr-Sar-MeLeu-Leu-MeLeu-Ala-D-Hiv-MeLeu-Leu-MeVal}] (cyclo([Hiv][dNMeL][dL][dNMeV][X17][d(aThr)][Sar][NMeL][dL][dNMeL][dA])), the solubility at 18 h in data set [1] (setting [2]) lay in the range of 25 to 50 µM (≈ 33.9 to 67.8 µg/mL). In addition, the inhibitory constant (Ki) at cyclophilin A (Cyp A) (setting [3]) and at cyclophilin D (Cyp D) (setting [4]) was 0.001 to 0.025 µM in each case.

As for `CC(C)C[C@@H]1C(=O)N[C@H](CC(C)C)C(=O)N(C)[C@H](C(C)C)C(=O)N(C)[C@H]([C@H](O)[C@H](C)CC(=O)NCc2ccccc2)C(=O)N[C@H]([C@@H](C)O)C(=O)N(C)CC(=O)N(C)[C@@H](CC(C)C)C(=O)N[C@H](CC(C)C)C(=O)N(C)[C@H](CC(C)C)C(=O)N[C@H](C)C(=O)O[C@@H](C(C)C)C(=O)N1C` [Example 36, cyclo-[(3R,4R,5S)-1-benzylcarbamoyl-3-methyl-5-methylamino-4-hydroxy-pentanoic acid-Thr-Sar-MeLeu-Leu-MeLeu-Ala-D-Hiv-MeLeu-Leu-MeVal]] (cyclo([Hiv][dNMeL][dL][dNMeV][X9][d(aThr)][Sar][NMeL][dL][dNMeL][dA])), the solubility at 18 h in data set [1] (pH 7.8) lay within 25 to 50 µM (≈ 33.5 to 67 µg/mL). The Ki on cyclophilin A (Cyp A) and at cyclophilin D (Cyp D) was 0.001 to 0.025 µM in each case.

Compound `CC(C)C[C@@H]1C(=O)N[C@H](CC(C)C)C(=O)N(C)[C@H](C(C)C)C(=O)N(C)[C@H]([C@H](O)[C@H](C)CCCc2ncccn2)C(=O)N[C@H]([C@@H](C)O)C(=O)N(C)CC(=O)N(C)[C@@H](CC(C)C)C(=O)N[C@H](CC(C)C)C(=O)N(C)[C@H](CC(C)C)C(=O)N[C@H](C)C(=O)O[C@@H](C(C)C)C(=O)N1C` [Example 16, cyclo-[(3R,4R,5S)-4-(hydroxy)-3-methyl-5-(methylamino)-1-(pyrimidin-2-yl)-heptanoic acid-Thr-Sar-MeLeu-Leu-MeLeu-Ala-D-Hiv-MeLeu-Leu-MeVal]] (cyclo([Hiv][dNMeL][dL][dNMeV][X14][d(aThr)][Sar][NMeL][dL][dNMeL][dA])) displayed a solubility at 18 h in data set [1] (pH 7.8) of 25 to 50 µM (≈ 32.8 to 65.7 µg/mL). In addition, the Ki on cyclophilin A (Cyp A) and at cyclophilin D (Cyp D) was 0.001 to 0.025 µM in each case.

Turning to `CC(C)C[C@@H]1C(=O)N[C@H](CC(C)C)C(=O)N(C)[C@H](C(C)C)C(=O)N(C)[C@H]([C@H](O)[C@H](C)CCN2CCC(F)(CO)CC2)C(=O)N[C@H]([C@@H](C)O)C(=O)N(C)CC(=O)N(C)[C@@H](CC(C)C)C(=O)N[C@H](CC(C)C)C(=O)N(C)[C@H](CC(C)C)C(=O)N[C@H](C)C(=O)O[C@@H](C(C)C)C(=O)N1C` [Example 25, cyclo-[(3R,4R,5S)-4-(hydroxy)-3-methyl-5-(methylamino)-1-N-((4-fluoro-piperidin-4-yl)-methanol)-hexanoic acid-Thr-Sar-MeLeu-Leu-MeLeu-Ala-D-Hiv-MeLeu-Leu-MeVal]] (cyclo([Hiv][dNMeL][dL][dNMeV][X33][d(aThr)][Sar][NMeL][dL][dNMeL][dA])), the solubility at 18 h in data set [1] (setting [2]) is above 100 µM. Also, the Ki at cyclophilin A (Cyp A) (setting [3]) and at cyclophilin D (Cyp D) (setting [4]) was 0.1 to 0.3 µM in each case.

As to `CC(C)C[C@@H]1C(=O)N[C@H](CC(C)C)C(=O)N(C)[C@H](C(C)C)C(=O)N(C)[C@H]([C@H](O)[C@H](C)CCN2CCC(c3ccccc3)CC2)C(=O)N[C@H]([C@@H](C)O)C(=O)N(C)CC(=O)N(C)[C@@H](CC(C)C)C(=O)N[C@H](CC(C)C)C(=O)N(C)[C@H](CC(C)C)C(=O)N[C@H](C)C(=O)O[C@@H](C(C)C)C(=O)N1C` [Example 34, cyclo-[(3R,4R,5S)-4-(hydroxy)-3-methyl-5-(methylamino)-1-(4-phenyl-1-piperidyl)-hexanoic acid-Thr-Sar-MeLeu-Leu-MeLeu-Ala-D-Hiv-MeLeu-Leu-MeVal]] (cyclo([Hiv][dNMeL][dL][dNMeV][X28][d(aThr)][Sar][NMeL][dL][dNMeL][dA])), the solubility at 18 h in data set [1] (setting [2]) lay within 10 to 25 µM (≈ 13.8 to 34.5 µg/mL). The inhibition constant Ki on cyclophilin A (Cyp A) (setting [3]) and on cyclophilin D (Cyp D) (setting [4]) was 0.001 to 0.025 µM throughout.
